The text below walks through data of US11926625B2, “HPK1 antagonists and uses thereof” (Nimbus Saturn, Inc., priority 2021, dated 2024).

Molecules are shown by their SMILES. pIC50: −log10 of the molar value. Where only a bound is given, the exact number is not on record here.

This experiment deals with T1, HPK1 (Homo sapiens, UniProt Q92918).
T1 construct: purchased Invitrogen
T1 sequence (Q92918 whole entry): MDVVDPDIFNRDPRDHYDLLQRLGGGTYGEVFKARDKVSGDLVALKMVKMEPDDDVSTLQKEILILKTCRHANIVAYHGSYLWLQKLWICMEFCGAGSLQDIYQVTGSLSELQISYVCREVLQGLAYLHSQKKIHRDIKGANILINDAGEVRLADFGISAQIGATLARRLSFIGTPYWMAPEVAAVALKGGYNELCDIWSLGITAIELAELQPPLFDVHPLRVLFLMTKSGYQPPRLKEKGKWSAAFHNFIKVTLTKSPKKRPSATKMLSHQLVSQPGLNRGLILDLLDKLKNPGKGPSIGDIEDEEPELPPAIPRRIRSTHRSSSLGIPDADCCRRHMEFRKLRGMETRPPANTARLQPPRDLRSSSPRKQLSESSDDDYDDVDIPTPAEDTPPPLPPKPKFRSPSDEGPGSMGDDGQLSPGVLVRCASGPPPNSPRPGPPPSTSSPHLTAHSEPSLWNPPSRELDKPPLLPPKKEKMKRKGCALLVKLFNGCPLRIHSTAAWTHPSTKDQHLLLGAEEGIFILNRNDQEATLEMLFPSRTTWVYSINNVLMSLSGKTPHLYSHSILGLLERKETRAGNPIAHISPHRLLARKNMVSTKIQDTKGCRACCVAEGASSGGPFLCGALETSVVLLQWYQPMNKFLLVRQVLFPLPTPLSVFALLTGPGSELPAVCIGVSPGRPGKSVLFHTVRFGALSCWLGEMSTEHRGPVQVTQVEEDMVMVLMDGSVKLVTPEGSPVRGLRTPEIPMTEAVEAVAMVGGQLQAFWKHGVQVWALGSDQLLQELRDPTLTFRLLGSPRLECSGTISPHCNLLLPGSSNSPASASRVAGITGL
As to the kind of experiment: HPK1 biochemical enzyme assay (microfluidic mobility shift, Caliper). The settings on record: 1.5 nM HPK1 (Invitrogen), 1 mM ATP, 30 min preincubation, 60 min at RT, top concentration 3 μM; read-out: HPK1 1000UMATP caliper IC50. The protocol:
Example 20. HPK1 Biochemical Enzyme Assay
HPK1 biochemical enzyme assay: HPK1 enzyme inhibition was measured using a microfluidic mobility shift assay. Reactions were performed in a 384-well plate, containing 1.5 nM HPK1 (Invitrogen), in assay buffer (Cama Biosciences; pH 7.4). Test compounds were titrated in ten point curves (top final assay concentration 3 μM), and preincubated with enzyme/substrate mix for 30 min prior to initiation of the reaction by addition of ATP (1 mM final concentration) and substrate (1 μM final concentration; Carna Biosciences) diluted in assay buffer supplemented by MgCl2 (final assay concentration of 5 mM). Following 60 min incubation at RT, the reaction was terminated by addition of 60 μl/well termination buffer (Carna Biosciences) and signal determination using a Caliper EZ Reader (Perkin Elmer, UK).
The pIC50 is the IC50 on a negative log10 scale, so that one unit is a factor of ten. On to `CN1CCN(c2ccc(Nc3ccc(-c4ccnc(C(C)(C)C#N)c4)c4c3C(=O)NC4)nc2)CC1` [Compound I-35, 2-methyl-2-[4-[7-[[5-(4-methylpiperazin-1-yl)-2-pyridyl]amino]-1-oxo-isoindolin-4-yl]-2-pyridyl] propanenitrile], for which the pIC50 was over 6.00. Consider `O=C1NCc2c(-c3ccncc3)ccc(Nc3cc(C4CCOC4)n[nH]3)c21` (stereo not drawn) [Compound I-36, 4-(4-pyridyl)-7-[(3-tetrahydrofuran-3-yl-1H-pyrazol-5-yl)amino] isoindolin-1-one], for which the pIC50 is over 6.00. The result for `CN1CCN(c2ccc(Nc3ccc(-c4ccnc(N5CCC(C#N)CC5)c4)c4c3C(=O)NC4)nc2)CC1` [Compound I-37, 1-[4-[7-[[5-(4-methylpiperazin-1-yl)-2-pyridyl]amino]-1-oxo-isoindolin-4-yl]-2-pyridyl] piperidine-4-carbonitrile] reads over 6.00; that for `CN1CCN(c2ccc(Nc3ccc(-c4ccnc(N5CCC6(CCCO6)CC5)c4)c4c3C(=O)NC4)nc2)CC1` [Compound I-38, 7-[[5-(4-methylpiperazin-1-yl)-2-pyridyl]amino]-4-[2-(1-oxa-8-azaspiro[4. 5]decan-8-yl)-4-pyridyl] isoindolin-1-one], 5.30 to 6.00.

For `CN1CCN(c2ccc(Nc3ccc(-c4ccnc(OCC(=O)N5CCCCC5)c4)c4c3C(=O)NC4)nc2)CC1` [Compound I-39, 7-[[5-(4-methylpiperazin-1-yl)-2-pyridyl]amino]-4-[2-[2-oxo-2-(1-piperidyl)ethoxy]-4-pyridyl] isoindolin-1-one], the pIC50 was over 6.00. Consider `CN1CCN(c2ccc(Nc3ccc(-c4ccnc(-c5c(F)cccc5F)c4)c4c3C(=O)NC4)nc2)CC1` [Compound I-40, 4-[2-(2,6-difluorophenyl)-4-pyridyl]-7-[[5-(4-methylpiperazin-1-yl)-2-pyridyl]amino] isoindolin-1-one], for which the pIC50 was 5.30 to 6.00. As to `CN1CCN(c2ccc(Nc3ccc(-c4ccnc(N5CC6CCC(C5)O6)c4)c4c3C(=O)NC4)nc2)CC1` [Compound I-41], the pIC50 was 5.30 to 6.00. The result for `CN1CCN(c2ccc(Nc3ccc(-c4ccnc(N5CCC6(CCNC6)CC5)c4)c4c3C(=O)NC4)nc2)CC1` [Compound I-42, 4-[2-(2,8-diazaspiro [4.5]decan-8-yl)-4-pyridyl]-7-[[5-(4-methylpiperazin-1-yl)-2-pyridyl]amino] isoindolin-1-one] reads over 6.00; that for `CC(=O)N1CCN(c2cc(-c3ccc(Nc4ccc(N5CCN(C)CC5)cn4)c4c3CNC4=O)ccn2)CC1` [Compound I-43, 4-[2-(4-acetylpiperazin-1-yl)-4-pyridyl]-7-[[5-(4-methylpiperazin-1-yl)-2-pyridyl]amino] isoindolin-1-one], 5.30 to 6.00; that for `CN1CCN(c2ccc(Nc3ccc(-c4ccnc(C5CCOCC5)c4)c4c3C(=O)NC4)nc2)CC1` [Compound I-44, 7-[[5-(4-methylpiperazin-1-yl)-2-pyridyl]amino]-4-(2-tetrahydropyran-4-yl-4-pyridyl) isoindolin-1-one], 5.30 to 6.00.

In the case of `CN1CCN(c2ccc(Nc3ccc(-c4ccncn4)c4c3C(=O)NC4)nc2)CC1` [Compound I-45, 7-[[5-(4-methylpiperazin-1-yl)-2-pyridyl]amino]-4-pyrimidin-4-yl-isoindolin-1-one], the pIC50 was over 6.00.

For the compound `CN1CCN(c2ccc(Nc3ccc(-c4ccnc(C5(C#N)CCOCC5)c4)c4c3C(=O)NC4)nc2)CC1` [Compound I-46, 4-[4-[7-[[5-(4-methylpiperazin-1-yl)-2-pyridyl]amino]-1-oxo-isoindolin-4-yl]-2-pyridyl] tetrahydropyran-4-carbonitrile], the pIC50 was over 6.00.

Regarding `CN1CCN(c2ccc(Nc3ccc(-c4ccnc(OCC5CCC5)c4)c4c3C(=O)NC4)nc2)CC1` [Compound I-47, 4-[2-(cyclobutylmethoxy)-4-pyridyl]-7-[[5-(4-methylpiperazin-1-yl)-2-pyridyl]amino] isoindolin-1-one], the pIC50 was over 6.00. The value for `CNc1cc(-c2ccc(Nc3ccc(N4CCN(C)CC4)cn3)c3c2CNC3=O)ncn1` [Compound I-48, 4-[6-(methylamino)pyrimidin-4-yl]-7-[[5-(4-methylpiperazin-1-yl)-2-pyridyl]amino] isoindolin-1-one] was over 6.00; that for `CNc1nccc(-c2ccc(Nc3ccc(N4CCN(C)CC4)cn3)c3c2CNC3=O)n1` [Compound I-49, 4-[2-(methylamino)pyrimidin-4-yl]-7-[[5-(4-methylpiperazin-1-yl)-2-pyridyl]amino] isoindolin-1-one] was over 6.00; that for `CN1CCN(c2ccc(Nc3ccc(-c4ccnc(N(C)C)c4)c4c3C(=O)NC4)nc2)CC1` [Compound I-50] was over 6.00.

`CN1CCN(c2ccc(Nc3ccc(-c4ccnc(N5CCOCC5)n4)c4c3C(=O)NC4)nc2)CC1` [Compound I-51, 7-[[5-(4-methylpiperazin-1-yl)-2-pyridyl]amino]-4-(2-morpholinopyrimidin-4-yl)isoindolin-1-one]: the pIC50 was 5.30 to 6.00.

For the compound `CNc1cc(-c2ccc(Nc3ccc(N4CCN(C)CC4)cn3)c3c2CNC3=O)ccn1` [Compound I-52, 4-[2-(methylamino)-4-pyridyl]-7-[[5-(4-methylpiperazin-1-yl)-2-pyridyl]amino] isoindolin-1-one], the pIC50 is over 6.00. For `CNC1CCN(c2ccc(Nc3ccc(-c4ccncc4)c4c3C(=O)NC4)nc2)CC1` [Compound I-53, 7-[[5-[4-(methylamino)-1-piperidyl]-2-pyridyl]amino]-4-(4-pyridyl) isoindolin-1-one], the pIC50 was over 6.00. The result for `CN1CCN(c2ccc(Nc3ccc(-c4cncn4C)c4c3C(=O)NC4)nc2)CC1` [Compound I-54, 4-(3-methylimidazol-4-yl)-7-[[5-(4-methylpiperazin-1-yl)-2-pyridyl]amino] isoindolin-1-one] reads over 6.00.

Consider `CNc1cc(-c2ncc(Nc3ccc(N4CCN(C)CC4)cn3)c3c2CNC3=O)ccn1` [Compound I-56, 4-(2-(methylamino)pyridin-4-yl)-7-((5-(4-methylpiperazin-1-yl)pyridin-2-yl)amino)-2,3-dihydro-1H-pyrrolo[3,4-c]pyridin-1-one], for which the pIC50 was over 6.00.

Turning to `Cc1cc(-c2ccc(Nc3ccc(N4CCN(C)CC4)cn3)c3c2CNC3=O)cc(=O)[nH]1` [Compound I-57, 4-(6-methyl-2-oxo-1,2-dihydropyridin-4-yl)-7-((5-(4-methylpiperazin-1-yl)pyridin-2-yl)amino) isoindolin-1-one], the pIC50 is over 6.00. For the compound `CN1CCN(c2ccc(Nc3cnc(-c4ccnc(N(C)C)c4)c4c3C(=O)NC4)nc2)CC1` [Compound I-58, 4-(2-(dimethylamino)pyridin-4-yl)-7-((5-(4-methylpiperazin-1-yl)pyridin-2-yl)amino)-2,3-dihydro-1H-pyrrolo[3,4-c]pyridin-1-one], the pIC50 is 5.30 to 6.00.

`CN1CCN(c2ccc(Nc3ccc(-c4ccnnc4)c4c3C(=O)NC4)nc2)CC1` [Compound I-59, 7-((5-(4-methylpiperazin-1-yl)pyridin-2-yl)amino)-4-(pyridazin-4-yl)isoindolin-1-one]: the pIC50 was over 6.00. The result for `CC#Cc1cc(-c2ccc(Nc3ccc(N4CCN(C)CC4)cn3)c3c2CNC3=O)ccn1` [Compound I-60, 7-((5-(4-methylpiperazin-1-yl)pyridin-2-yl)amino)-4-(2-(prop-1-yn-1-yl)pyridin-4-yl)isoindolin-1-one] reads over 6.00.

As to `CN1CCN(c2ccc(Nc3ccc(-c4cc(N5CC6CCC(C5)O6)ncn4)c4c3C(=O)NC4)nc2)CC1` [Compound I-61, 4-(6-(8-oxa-3-azabicyclo [3.2.1]octan-3-yl)pyrimidin-4-yl)-7-((5-(4-methylpiperazin-1-yl)pyridin-2-yl)amino) isoindolin-1-one], the pIC50 was 5.30 to 6.00. As to `CN1CCN(c2ccc(Nc3ccc(-c4ccnc(C5CCOCC5)n4)c4c3C(=O)NC4)nc2)CC1` [Compound I-62, 7-((5-(4-methylpiperazin-1-yl)pyridin-2-yl)amino)-4-(2-(tetrahydro-2H-pyran-4-yl)pyrimidin-4-yl)isoindolin-1-one], the pIC50 was 5.30 to 6.00.

As to `CN1CCN(c2ccc(Nc3ccc(-c4ccnc(C#CC5CCCCC5)c4)c4c3C(=O)NC4)nc2)CC1` [Compound I-63, 4-(2-(cyclohexylethynyl)pyridin-4-yl)-7-((5-(4-methylpiperazin-1-yl)pyridin-2-yl)amino) isoindolin-1-one], the pIC50 is over 6.00. Regarding `Cc1cccc(C#Cc2cc(-c3ccc(Nc4ccc(N5CCN(C)CC5)cn4)c4c3CNC4=O)ccn2)c1` [Compound I-64], the pIC50 was over 6.00. The value for `CN1CCN(c2ccc(Nc3ccc(-c4ccnc(C5CCCCO5)c4)c4c3C(=O)NC4)nc2)CC1` (stereo not drawn) [Compound I-65, 7-((5-(4-methylpiperazin-1-yl)pyridin-2-yl)amino)-4-(2-(tetrahydro 2H-pyran-2-yl)pyridin-4-yl)isoindolin-1-one] was 5.30 to 6.00.

On to `CN1CCN(c2ccc(Nc3ccc(-c4ccnc(C5CCCOC5)c4)c4c3C(=O)NC4)nc2)CC1` (stereo not drawn) [Compound I-66, 7-((5-(4-methylpiperazin-1-yl)pyridin-2-yl)amino)-4-(2-(tetrahydro-2H-pyran-3-yl)pyridin-4-yl)isoindolin-1-one], for which the pIC50 is 5.30 to 6.00. The result for `CN1CCN(c2ccc(Nc3ccc(-c4ccnc(C#Cc5ccn(C)n5)c4)c4c3C(=O)NC4)nc2)CC1` [Compound I-67, 4-(2-((1-methyl-1H-pyrazol-3-yl)ethynyl)pyridin-4-yl)-7-((5-(4-methylpiperazin-1-yl)pyridin-2-yl)amino) isoindolin-1-one] reads over 6.00; that for `CN1CCN(c2ccc(Nc3ccc(-c4ccnc(C#CC5CCCO5)c4)c4c3C(=O)NC4)nc2)CC1` (stereo not drawn) [Compound I-68], over 6.00.
